The conditions of data set [1]: cited from earlier work.
The subject of the next data set is human plasma proteins. Conditions: cited from earlier work.
A short description of data set [2]: Rat oral pharmacokinetics at 3 mg/kg. It is filed as in vivo. Conditions: fasted rats. How it is done: A rat study with oral administration at 3 mg/kg was performed. Two pharmaceutical formulations of the present invention, the crystalline compound and crushed BELSOMRA® tablets were administered and plasma concentrations were measured. Absorption following the administration of the pharmaceutical formulations of the present invention was immediate, while absorption for the crystalline and BELSOMRA® were slower.

SMILES strings stand for the structures.

Here are results for 2 compounds from patent US20200078303A1, “PHARMACEUTICAL FORMULATIONS OF SUVOREXANT” (Druggability Technologies IP HoldCo Ltd., priority 2016, published 2020).

Take `Cc1ccc(-n2nccn2)c(C(=O)N2CCN(c3nc4cc(Cl)ccc4o3)CC[C@H]2C)c1` [Suvorexant, [(7R)-4-(5-chloro-2-benzoxazolyl)hexahydro-7-methyl-1H-1,4-diazepin-1-yl][5-methyl-2-(2H-1,2,3-triazol-2-yl)phenyl]methanone]: in data set [1] (10 mg), the mean absolute bioavailability was 82%. The “mean t½” value in data set [1] (95% CI: 12 to 13) is on record as “approximately 12 hours”. Besides, in data set [1] (fasted conditions), the median tmax was 2 h and the tmax range was 0.5 to 6 h. Further, in data set [1] (high-fat meal), the “change in AUC or Cmax with high-fat meal” value is “no meaningful change” and the “delay in tmax with high-fat meal” value was “approximately 1.5 hours”. Moreover, in data set [1] (human, in vivo), the “mean volume of distribution” value was “approximately 49 liters”, the “radiolabeled dose recovered in the feces” value was “approximately 66%” and the “radiolabeled dose recovered in the urine” value is 23%. For the same compound, in data set [1] (once-daily dosing), the accumulation is reported as 1- to 2 fold and the time to steady-state is reported as no more than 3 days. For the same compound, in data set [1] (range of 10-80 mg), the “dose proportionality of exposure” value is on record as “less than strictly dose-proportional”. The “bound to human plasma proteins” value in the data set on human plasma proteins was greater than 99%.
Consider `Cc1ccc(-n2nccn2)c(C(=O)N2CCN(c3nc4cc(Cl)ccc4o3)CC[C@H]2C)c1` [crystalline compound], for which the “absorption after oral administration (in words)” value in data set [2] is given as “slower”.
